In ChEMBL document CHEMBL5126602, “Polo-like Kinase 1 Inhibitors in Human Cancer Therapy: Development and Therapeutic Potential” (J Med Chem, 2022):
One block for each molecule: values may come before it. Numbered stars: 1 amine (or outer) side, 2 acyl side, 3 side chain; on linkers, the order of the positions; unused ones are H or OH. Square brackets hold non-standard residues; d marks the D form. Peptide text beside a SMILES is read from it. X1 = O=C([C@H](Cc1cncn1CCCCc1cn(Cc2ccc(Oc3ccccc3)cc2F)nn1)N[*:1])[*:2]; pT = C[C@@H](OP(=O)(O)O)[C@H](N)C(=O)O

Key:
[1] = biological target: T1, Serine/threonine-protein kinase PLK3 (Homo sapiens, UniProt Q9H4B4); assay: Inhibition of 5-carboxyfluorescein-GPLATSpTPKNG-OH peptide binding to PLK3 (335 to 646 residues) PBD (unknown origin) at 100 uM preincubated for 1 hrs with compound followed by peptide addition and measured after 1 hrs by fluorescence polarization assay; conditions: time 2.0 hrs
Target sequence in this assay (Q9H4B4 whole entry, looked up, the tested form may be a part): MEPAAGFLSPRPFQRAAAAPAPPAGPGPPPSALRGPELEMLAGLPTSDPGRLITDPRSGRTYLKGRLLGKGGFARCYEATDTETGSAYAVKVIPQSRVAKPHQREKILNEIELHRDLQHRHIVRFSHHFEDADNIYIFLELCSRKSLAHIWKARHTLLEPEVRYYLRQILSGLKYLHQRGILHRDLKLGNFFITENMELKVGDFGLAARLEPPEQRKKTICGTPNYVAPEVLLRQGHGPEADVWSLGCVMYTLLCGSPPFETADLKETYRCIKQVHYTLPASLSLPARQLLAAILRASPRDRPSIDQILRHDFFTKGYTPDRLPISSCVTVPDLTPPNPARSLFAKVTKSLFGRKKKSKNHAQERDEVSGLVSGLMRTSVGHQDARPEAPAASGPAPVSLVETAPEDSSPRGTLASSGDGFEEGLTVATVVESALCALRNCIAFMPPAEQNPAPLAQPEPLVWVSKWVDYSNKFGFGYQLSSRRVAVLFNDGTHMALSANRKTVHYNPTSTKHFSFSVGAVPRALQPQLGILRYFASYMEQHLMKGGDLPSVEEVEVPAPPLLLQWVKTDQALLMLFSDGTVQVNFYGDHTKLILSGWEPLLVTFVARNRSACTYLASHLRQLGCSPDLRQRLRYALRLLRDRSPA

[2] = biological target: T2, Serine/threonine-protein kinase PLK1 (Homo sapiens, UniProt P53350); assay: Inhibition of 5-carboxyfluoresceinGPMQSpTPLNG-OH peptide binding to N-terminal His7-tagged human PLK1 (326 to 603 residues) PBD expressed in Escherichia coli BL21 (DE3) cells preincubated for 1 hrs with compound followed by peptide addition and measured after 1 hrs by fluorescence polarization assay
T2 sequence (P53350 whole entry, the tested form may be a part): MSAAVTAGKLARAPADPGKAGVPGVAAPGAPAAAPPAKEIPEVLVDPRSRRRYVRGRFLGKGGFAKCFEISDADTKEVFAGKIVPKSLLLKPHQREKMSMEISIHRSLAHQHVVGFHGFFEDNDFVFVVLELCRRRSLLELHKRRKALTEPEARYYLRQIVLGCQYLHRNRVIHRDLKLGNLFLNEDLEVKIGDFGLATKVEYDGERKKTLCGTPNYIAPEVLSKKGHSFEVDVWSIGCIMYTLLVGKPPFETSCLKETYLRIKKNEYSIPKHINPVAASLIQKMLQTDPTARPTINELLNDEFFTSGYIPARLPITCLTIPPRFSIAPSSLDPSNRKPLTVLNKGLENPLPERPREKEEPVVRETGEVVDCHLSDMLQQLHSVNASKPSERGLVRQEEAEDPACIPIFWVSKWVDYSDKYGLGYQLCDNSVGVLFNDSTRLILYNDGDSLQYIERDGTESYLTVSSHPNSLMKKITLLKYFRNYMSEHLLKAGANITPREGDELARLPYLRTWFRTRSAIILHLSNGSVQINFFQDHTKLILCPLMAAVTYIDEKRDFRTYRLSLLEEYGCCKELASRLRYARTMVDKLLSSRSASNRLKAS

[3] = biological target: T3, Serine/threonine-protein kinase PLK2 (Homo sapiens, UniProt Q9NYY3); assay: Inhibition of 5-carboxyfluorescein-GPMQTSpTPKNG-OH peptide binding to PLK2 (355 to 685 residues) PBD (unknown origin) preincubated for 1 hrs with compound followed by peptide addition and measured after 1 hrs by fluorescence polarization assay
T3 sequence (Q9NYY3 whole entry, the tested form may be a part): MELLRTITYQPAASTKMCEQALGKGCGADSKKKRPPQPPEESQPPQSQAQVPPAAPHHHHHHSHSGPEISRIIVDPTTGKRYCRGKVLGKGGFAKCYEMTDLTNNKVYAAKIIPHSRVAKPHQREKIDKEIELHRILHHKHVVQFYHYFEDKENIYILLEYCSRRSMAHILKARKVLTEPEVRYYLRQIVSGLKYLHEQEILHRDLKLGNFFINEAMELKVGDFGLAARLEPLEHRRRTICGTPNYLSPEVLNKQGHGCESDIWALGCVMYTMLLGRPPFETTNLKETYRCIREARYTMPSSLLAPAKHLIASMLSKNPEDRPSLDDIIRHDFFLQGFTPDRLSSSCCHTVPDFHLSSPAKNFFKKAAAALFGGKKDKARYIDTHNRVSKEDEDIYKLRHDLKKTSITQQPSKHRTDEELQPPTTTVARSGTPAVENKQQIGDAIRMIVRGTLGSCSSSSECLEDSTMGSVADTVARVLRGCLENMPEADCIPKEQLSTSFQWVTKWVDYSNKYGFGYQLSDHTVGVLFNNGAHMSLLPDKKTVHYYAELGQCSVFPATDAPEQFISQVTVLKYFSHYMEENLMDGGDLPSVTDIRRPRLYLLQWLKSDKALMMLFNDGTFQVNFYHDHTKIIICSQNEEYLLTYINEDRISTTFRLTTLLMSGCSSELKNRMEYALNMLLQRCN

[4] = biological target: T2, Serine/threonine-protein kinase PLK1; assay: Inhibition of 5-carboxyfluoresceinGPMQSpTPLNG-OH peptide binding to PLK1 (326 to 603 residues) PBD (unknown origin) preincubated for 1 hrs with compound followed by peptide addition and measured after 1 hrs by fluorescence polarization assay
[5] = system: HeLa; assay: Antiproliferative activity against human HeLa cells assessed as inhibition of cell proliferation incubated for 24 hrs by BCA assay; assay type: functional, cell-based
[6] = biological target: T3, Serine/threonine-protein kinase PLK2; assay: Inhibition of 5-carboxyfluorescein-GPMQTSpTPKNG-OH peptide binding to PLK2 (355 to 685 residues) PBD (unknown origin) preincubated for 1 hrs with compound followed by peptide addition and measured after 75 min by fluorescence polarization assay
[7] = biological target: T1, Serine/threonine-protein kinase PLK3; assay: Inhibition of 5-carboxyfluorescein-GPLATSpTPKNG-OH peptide binding to PLK3 (335 to 646 residues) PBD (unknown origin) at 100 uM preincubated for 1 hrs with compound followed by peptide addition and measured after 75 mins by fluorescence polarization assay; conditions: time 135.0 min
Target sequence in this assay (Q9H4B4 whole entry, looked up, the tested form may be a part): as the sequence (Q9H4B4 whole entry, looked up, the tested form may be a part) above

[8] = biological target: T2, Serine/threonine-protein kinase PLK1; assay: Inhibition of 5-carboxyfluoresceinGPMQSpTPLNG-OH peptide binding to PLK1 (326 to 603 residues) PBD (unknown origin) preincubated for 1 hrs with compound followed by peptide addition and measured after 75 mins by fluorescence polarization assay
[9] = Solubility of the compound; assay type: physicochemical
[10] = Half-life in rat liver microsomes; assay type: ADME, Microsome
[11] = biological target: T2, Serine/threonine-protein kinase PLK1; assay: Inhibition of biotin labelled PoloBoxtide binding to GST/His-fused full length PLK1 (unknown origin) expressed in baculovirus infected Sf9 cells
[12] = biological target: T2, Serine/threonine-protein kinase PLK1; assay: Inhibition of PLK1 PBD (unknown origin) dependent binding
[13] = biological target: T2, Serine/threonine-protein kinase PLK1; assay: Inhibition of biotinylated p-T78 peptide binding to human HA-EGFP-PLK1 expressed in HEK293-A cells using TMB as substrate incubated for 1 hrs by ELISA plate reader based analysis
[14] = biological target: T3, Serine/threonine-protein kinase PLK2; assay: Inhibition of Myc-tagged PLK2 PBD (unknown origin) expressed in HEK293T cells using 5CF-GPMQTSpTPKNG-NH2 as substrate preincubated for 30 mins followed by substrate addition and measured after 30 mins by fluorescence polarization assay
[15] = biological target: T1, Serine/threonine-protein kinase PLK3; assay: Inhibition of PLK3 (unknown origin) in the presence of ATP by ADP-Glo-kinase assay
Target sequence in this assay (Q9H4B4 whole entry, the tested form may be a part): as the sequence (Q9H4B4 whole entry, looked up, the tested form may be a part) above

[16] = biological target: T3, Serine/threonine-protein kinase PLK2; assay: Inhibition of PLK2 (unknown origin) in the presence of ATP by ADP-Glo-kinase assay
[17] = biological target: T2, Serine/threonine-protein kinase PLK1; assay: Inhibition of PLK1 (unknown origin) in the presence of ATP by ADP-Glo-kinase assay

inhibition [1]: 49%
IC50 [2]: 1.36 µM
IC50 [3]: 14.2 µM
SMILES: CC1=C/C(=N/OC(=O)c2ccccc2C)C(C)=CC1=O

solubility [9]: > 60 µg/mL
half-life [10]: 20.1 min
SMILES: COc1cccc(CC(=O)NCCCn2c(=O)c3cc(F)ccc3n3c(=S)[nH]nc23)c1

IC50 [13]: 4.5 µM
SMILES: C[C@H](OP(=O)(O)O)[C@H](NC(=O)c1ccc2c(c1)nc(CCCCc1ccccc1)n2CCc1ccccc1)C(N)=O

solubility [9]: > 60 µg/mL
half-life [10]: > 30 min
SMILES: N#Cc1ccc(CC(=O)NCCCn2c(=O)c3cc(F)ccc3n3c(=S)[nH]nc23)cc1

IC50 [14]: 5.9 µM
SMILES: CC(=O)N1CCC[C@H]1C(=O)N[C@@H](CC(C)C)C(=O)N[C@@H](Cc1cncn1CCCCc1cn(Cc2ccc(Oc3ccccc3)cc2F)nn1)C(=O)N[C@@H](CO)C(=O)N[C@H](C(N)=O)[C@@H](C)OP(=O)(O)O (Ac-PL[X1]S[pT]-NH2)

IC50 [15]: 5120 µM
IC50 [16]: 952 µM
IC50 [17]: 10.2 µM
SMILES: COc1cc(O)c2c(=O)cc(-c3ccccc3)oc2c1OC [Moslosooflavone]

The remaining lines, values behind:

SMILES: CC1=C/C(=N/OC(=O)c2ccc(CNC(=O)CCc3cn(CCCCCCOCCOCCNC(=O)CC45CC6CC(CC(C6)C4)C5)nn3)cc2C)C(C)=CC1=O
inhibition [1]: 47%
IC50 [4]: 10.5 µM
IC50 [5]: 14 µM
IC50 [3]: 51.9 µM

SMILES: CC1=C/C(=N/OC(=O)c2ccc(CNC(=O)CCc3cn(CCCCCCOCCOCCNC(=O)[C@H](C)CCC45CC6CC(CC(C6)C4)C5)nn3)cc2C)C(C)=CC1=O
IC50 [6]: 54.8 µM
inhibition [7]: 34%
IC50 [8]: 48.2 µM
IC50 [5]: 9.2 µM

SMILES: Cc1ccc(NC(=S)NCCNc2nccc(C(F)(F)F)n2)c(C)c1
IC50 [11]: 1 µM

SMILES: O=c1c2cc(F)ccc2n2c(=S)[nH]nc2n1CCC(F)(F)F
solubility [9]: > 60 µg/mL
half-life [10]: > 30 min

SMILES: CCCCCCCCCC1=CO[C@]2(C[C@H](C(=O)O)[C@@](CC(=O)O)(C(=O)OCCCC)O2)C1=O
IC50 [12]: 102 µM

SMILES: O=c1c2cc(F)ccc2n2c(=S)[nH]nc2n1CC1CC1
solubility [9]: > 60 µg/mL
half-life [10]: > 30 min

SMILES: O=c1c2cc(F)ccc2n2c(=S)[nH]nc2n1CCc1ccncc1
solubility [9]: > 60 µg/mL
half-life [10]: > 30 min
